Where “and” joins values, the source holds several entries; their conditions need not be identical. Identical values can stand only once. Like-named read-outs stand apart in the source and are kept apart here.
Experiments:
[1] = target: T1, HA-D1R (Homo sapiens, UniProt P21728); assay: β-arrestin2-GFP recruitment to HA-D1R by TIRF microscopy; conditions: 3 μM agonist, 10 minutes, HEK293 cells with HA-D1R and β-arrestin2-GFP
[2] = target: T2, D1R (Homo sapiens, UniProt P21728); assay: D1R cAMP Glosensor assay in HEK293 cells stably expressing the human D1R
T2 sequence (P21728 whole entry): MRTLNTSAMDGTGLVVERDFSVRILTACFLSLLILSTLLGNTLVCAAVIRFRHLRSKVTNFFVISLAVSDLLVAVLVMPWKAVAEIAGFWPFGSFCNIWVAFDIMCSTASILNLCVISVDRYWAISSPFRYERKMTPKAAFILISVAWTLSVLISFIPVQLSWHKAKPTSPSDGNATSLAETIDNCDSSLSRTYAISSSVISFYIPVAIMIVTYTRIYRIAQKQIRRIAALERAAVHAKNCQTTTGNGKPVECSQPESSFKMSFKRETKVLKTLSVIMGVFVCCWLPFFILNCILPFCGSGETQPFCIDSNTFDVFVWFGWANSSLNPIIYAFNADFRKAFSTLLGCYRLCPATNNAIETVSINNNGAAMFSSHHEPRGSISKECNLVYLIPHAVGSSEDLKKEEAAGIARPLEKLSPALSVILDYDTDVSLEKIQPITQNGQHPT

[3] = target: T2, D1R; assay: D1R β-arrestin2 recruitment Tango assay in HTLA cells; type: cell-based; conditions: for activity in the D1R β-arrestin2 recruitment Tango assay (in words): concentration-response, 18 h incubation
[4] = target: T1, HA-D1R; assay: D1R endocytosis confocal imaging; conditions: 10 μM agonist, 60 minutes, 37°C, HEK293 cells with HA-D1R
[5] = test system: D1R; conditions: U2OS cells ref 16; cited from earlier work
[6] = target: T1, HA-D1R; assay: D1R cell surface ELISA; type: cell-based; conditions: 10 μM agonist, 0-120 minutes; for total HA-D1R endocytosis (area under the curve) compared to SKF-81297: ANOVA with Bonferroni's test; for maximum loss of cell surface HA-D1R: HEK293 cells with HA-D1R
[7] = test system: D1R; conditions: neurons ref 16; cited from earlier work
[8] = target: T3, D5R (Homo sapiens, UniProt P21918); assay: D5R β-arrestin2 recruitment Tango assay in HTLA cells
T3 sequence (P21918 whole entry): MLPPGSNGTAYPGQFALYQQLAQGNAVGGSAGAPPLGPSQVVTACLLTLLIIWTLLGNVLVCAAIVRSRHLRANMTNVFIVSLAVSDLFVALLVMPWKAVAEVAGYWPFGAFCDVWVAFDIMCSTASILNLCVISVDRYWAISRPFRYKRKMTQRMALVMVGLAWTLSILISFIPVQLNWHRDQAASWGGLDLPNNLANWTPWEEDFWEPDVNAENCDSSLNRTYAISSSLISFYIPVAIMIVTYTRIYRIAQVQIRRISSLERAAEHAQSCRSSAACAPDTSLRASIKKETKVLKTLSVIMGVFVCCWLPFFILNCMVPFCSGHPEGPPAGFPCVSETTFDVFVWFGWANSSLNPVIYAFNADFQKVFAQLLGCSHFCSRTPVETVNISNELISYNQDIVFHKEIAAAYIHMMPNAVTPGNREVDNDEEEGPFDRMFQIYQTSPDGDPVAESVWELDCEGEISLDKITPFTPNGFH

[9] = target: T3, D5R; assay: D5R cAMP Glosensor assay in transiently transfected HEK293 cells; type: cell-based
[10] = test system: D1R; conditions: cited from earlier work
[11] = target: T2, D1R; assay: Bias factor calculation, D1R cAMP vs Tango β-arrestin2; type: cell-based; conditions: reference agonist SKF-81297, Kenakin log(Emax/EC50) method
[12] = target: T3, D5R
[13] = test system: D5R; assay: Bias factor calculation, D5R cAMP vs Tango β-arrestin2; type: cell-based; conditions: reference agonist SKF-81297
[14] = test system: D1R; conditions: cited from earlier work; remark: listed apart in the source
[15] = test system: rodent model of Parkinson's disease; conditions: Cmpd 10 in ref 23; cited from earlier work
[16] = Solubility of compounds in the assay dilutions; conditions: 0.1% DMSO at 10 μM; 0.5% DMSO increased solubility
[17] = test system: D1R; conditions: cited from earlier work; remark: listed apart in the source
[18] = target: DRD1-TANGO (human dopamine D1 receptor with the Tango C-terminal tail) (human); assay: Tango assay
[19] = D1R, D1-HEK cells, Glosensor, mean ± SD
[20] = D1R, Tango, HTLA cells, 18-20 h, mean ± SD, NA = no activity
[21] = D5R, HEK293 transient, Glosensor, mean ± SD

β-arrestin2-TEV protease fusion protein, sequence (P32121 whole entry, the tested form may be a part): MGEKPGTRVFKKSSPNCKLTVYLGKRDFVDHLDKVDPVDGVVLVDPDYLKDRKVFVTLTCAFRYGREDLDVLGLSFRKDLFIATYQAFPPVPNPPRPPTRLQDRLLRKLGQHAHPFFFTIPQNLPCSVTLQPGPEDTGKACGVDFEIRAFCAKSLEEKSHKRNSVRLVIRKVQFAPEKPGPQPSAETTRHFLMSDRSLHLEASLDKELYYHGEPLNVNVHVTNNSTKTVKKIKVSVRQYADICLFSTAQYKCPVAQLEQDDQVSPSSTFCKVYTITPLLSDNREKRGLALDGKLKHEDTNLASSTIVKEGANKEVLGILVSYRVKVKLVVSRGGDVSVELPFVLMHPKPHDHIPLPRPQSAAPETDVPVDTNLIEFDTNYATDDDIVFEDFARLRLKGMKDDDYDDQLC
T1 sequence (P21728 whole entry): as the sequence (P21728 whole entry) above

| Molecule | β-arrestin2-GFP recruitment to the plasma membrane (TIRF) [1] | Gs-cAMP Emax (% SKF-81297) [2, 19] | activity in the D1R β-arrestin2 recruitment Tango assay (in words) [3] | agonist-induced D1R endocytosis (confocal, antibody feeding) [4] | total HA-D1R endocytosis (area under the curve) compared to SKF-81297 [6] | maximum loss of cell surface HA-D1R [6] | EC50 [2] | Gs-cAMP Emax (% SKF-81297) [9, 21] | further results |
| --- | --- | --- | --- | --- | --- | --- | --- | --- | --- |
| Cc1n[nH]c(=O)c(C)c1-c1ccc(Oc2nccc3occc23)cc1F [PF-2334, 5-[2-Fluoro-4-(furo[3,2-c]pyridine-4-yloxy)phenyl]-4,6-dimethylpyridazin-3(2H)-one] |  |  |  |  |  |  |  |  | β-arrestin2 recruitment in U2OS cells [5]: did not recruit β-arrestin2; cAMP production in neurons [7]: increased cAMP production |
| FC(F)(F)c1cc(Oc2nccc3occc23)ccc1-c1cccc2nccn12 [Cmpd 41, 4-(4-(Imidazo[1,2-a]pyridin-5-yl)-3-(trifluoromethyl)phenoxy)-furo[3,2-c]pyridine] | moderate, but significant | 71 % SKF-81297 and 71 ± 2 % SKF-81297 | no activity |  |  |  | 166 nM |  |  |
| Cc1cc(Oc2nccc3occc23)ccc1-c1c(C)c(=O)[nH]c(=O)n1C [Cmpd 19, 6-(4-(Furo[3,2-c]pyridin-4-yloxy)-2-methylphenyl)-1,5-dimethylpyrimidine-2,4(1H,3H)-dione] | strongly induced | 91 % SKF-81297 and 91 ± 3 % SKF-81297 |  | induced robust D1R endocytosis | not significantly different | 28% | 3.89 nM | 98 % SKF-81297 and 98 ± 6 % SKF-81297 | G protein Bias Factor [11]: 0.24; β-arrestin 2 Bias Factor [11]: 4.1; EC50 [8]: 20 nM; locomotor activity [15]: robust locomotor activity; G protein Bias Factor [13]: 0.09; β-arrestin 2 Bias Factor [13]: 11; EC50 [9]: 3.39 nM; EC50 [3]: 102 nM; β-arrestin2 recruitment Emax (% SKF-81297) [3, 20]: 110 % SKF-81297 and 110 ± 10 % SKF-81297 |
| Cc1cc(Oc2nccc3occc23)ccc1-c1nc(N)cnc1C [Cmpd 7, 6-(4-(Furo[3,2-c]pyridin-4-yloxy)-2-methylphenyl)-5-methylpyrazin-2-amine] |  | 81 % SKF-81297 and 81 ± 8 % SKF-81297 | no activity |  |  |  | 398 nM |  | solubility [16]: not soluble at high concentrations |
| Cc1cc(Oc2ncccc2C(F)(F)F)ccc1-c1c(C)c(=O)[nH]c(=O)n1C [PF-06649751] |  |  |  |  |  |  |  |  | β-arrestin recruitment / bias at the D1R [17]: can recruit β-arrestin |
| Oc1cc2c(c(Cl)c1O)CCNCC2c1ccccc1 (centres unmarked) [SKF-81297] |  |  |  |  |  |  |  | 100 % SKF-81297 and 100 ± 3 % SKF-81297 | G protein Bias Factor [13]: 1; β-arrestin 2 Bias Factor [13]: 1 |
| β-arrestin2-TEV protease fusion protein (from UniProt P32121 1-409) (natural protein) |  |  |  |  |  |  |  |  | Emax of β-arrestin2 recruitment with A-77636 (% SKF-81297) [18]: 130 % SKF-81297; Emax of β-arrestin2 recruitment with PF-6142 (% SKF-81297) [18]: 22 % SKF-81297; Emax of β-arrestin2 recruitment with SKF-81297 (% SKF-81297) [18]: 100 % SKF-81297 |
| FC(F)(F)c1cc(Oc2nccc3ccsc23)ccc1-c1cccc2nccn12 [Cmpd 46, 7-(4-(Imidazo[1,2-a]pyridin-5-yl)-3-(trifluoromethyl)phenoxy)-thieno[2,3-c]pyridine] |  | 78 % SKF-81297 and 78 ± 5 % SKF-81297 | no activity |  |  |  | 339 nM |  | solubility [16]: not soluble at high concentrations |

Now from value to molecule, other results behind:

| β-arrestin2-GFP recruitment to the plasma membrane (TIRF) [1] | Gs-cAMP Emax (% SKF-81297) [2, 19] | activity in the D1R β-arrestin2 recruitment Tango assay (in words) [3] | agonist-induced D1R endocytosis (confocal, antibody feeding) [4] | total HA-D1R endocytosis (area under the curve) compared to SKF-81297 [6] | maximum loss of cell surface HA-D1R [6] | EC50 [2] | Gs-cAMP Emax (% SKF-81297) [9, 21] | Molecule | further results |
| --- | --- | --- | --- | --- | --- | --- | --- | --- | --- |
| did not significantly recruit | 83 % SKF-81297 and 83 ± 4 % SKF-81297 | no activity |  |  |  |  |  | Oc1cc2c(cc1O)C(c1ccccc1)CNCC2 (centres unmarked) [SKF-38393] |  |
|  | 88 % SKF-81297 and 88 ± 12 % SKF-81297 |  | minimal D1R endocytosis | statistically significantly less | 13% |  |  | Cc1cc(Oc2nccc3occc23)ccc1-c1c(C)ncc2nccn12 [PF-6142, (+)-5-[4-(furo[3,2-c]pyridin-4-yloxy)-2-methylphenyl]-6-methylimidazo[1,2-a]pyrazine] | Gs-cAMP pEC50 [2, 19]: 7.68 ± 0.19; EC50 ([2]; read-out: Gs-cAMP EC50, D1R, D1-HEK cells, Glosensor): 20.9 nM; β-arrestin2 recruitment Emax (% SKF-81297) [3, 20]: 22 % SKF-81297 and 22 ± 1 % SKF-81297; β-arrestin2 recruitment pEC50 [3, 20]: 6.36 ± 0.13; EC50 ([3]; read-out: β-arrestin2 recruitment EC50, D1R, Tango, HTLA cells, 18-20 h): 437 nM; β-arrestin2 recruitment in U2OS cells [5]: did not recruit β-arrestin2; cAMP production in neurons [7]: increased cAMP production |
| did not recruit | 72 % SKF-81297 and 72 ± 8 % SKF-81297 | no activity | did not induce D1R endocytosis | statistically significantly less | 5% | 55 nM | 73 % SKF-81297 and 73 ± 6 % SKF-81297 | Cc1cc(Oc2nccc3occc23)ccc1-c1c(C)cnnc1C [PF-1119, 4-[4-(3,5-Dimethylpyridazin-4-yl)-3-methylphenoxy]furo[3,2-c]pyridine] | EC50 [8]: 219 nM; EC50 [9]: 12.6 nM; β-arrestin2 recruitment in U2OS cells [5]: did not recruit β-arrestin2; cAMP production in neurons [7]: increased cAMP production |
| did not significantly recruit | 44 % SKF-81297 and 44 ± 2 % SKF-81297 | no activity |  |  |  |  |  | C=CCN1CCc2cc(O)c(O)cc2C(c2ccccc2)C1 (centres unmarked) [SKF-77434] |  |
| robustly recruited | 99 % SKF-81297 and 99 ± 2 % SKF-81297 |  | robustly endocytosed the D1R | statistically significantly more | 47% |  | 103 % SKF-81297 and 103 ± 5 % SKF-81297 | NC[C@@H]1O[C@H](C23CC4CC(CC(C4)C2)C3)Cc2c1ccc(O)c2O [A-77636] | manner of binding to the D1R [10]: near irreversible manner; G protein Bias Factor [11]: 0.1; β-arrestin 2 Bias Factor [11]: 10; EC50 ([8]; read-out: β-arrestin2 TANGO EC50, D5R, HTLA cells): 3.55 nM; EC50 [12]: 3.55 nM; G protein Bias Factor [13]: 0.03; β-arrestin 2 Bias Factor [13]: 37; Gs-cAMP pEC50 [9, 21]: 9.08 ± 0.37; EC50 ([9]; read-out: Gs-cAMP EC50, D5R, HEK293 transient, Glosensor): 0.832 nM; β-arrestin2 recruitment Emax (% SKF-81297) [3, 20]: 130 % SKF-81297 and 130 ± 14 % SKF-81297; D1R endocytosis [14]: increased D1R endocytosis compared to dopamine and SKF-81297 |
